Data taken from patent US20120132594A1, “AQUEOUS SOLVENTS FOR HYDROCARBONS AND OTHER HYDROPHOBIC COMPOUNDS” (IMPERIAL INNOVATIONS LIMITED, priority 2009, published 2012).

Experiment: Extraction of organic standards from spiked JSC-1 rock with aqueous polysorbate 80 solution, GC-MS
Format: physicochemical
Settings: ultrasonication 20 minutes
Method: JSC-1, a Martian and lunar analogue (McKay et al. (1993) JSC-1: A new lunar regolith simulant. Lunar and Planetary Institute Conference Abstracts), was spiked with various hydrocarbon compound classes (Table 1 below). All are known to be soluble in organic solvents, and are considered mostly insoluble in water with the exception of atrazine. 1 ml of a mixture of 10.0 ng ml^−1 hydrocarbon standards were spiked on to 1 g of rock, the concentrations of each non-aromatic standard amounted to 10.0 ng g^−1 rock (10 ppb). Terphenyl (an aromatic compound) was used as a second quantitation standard, added just before analysis in order to establish extraction efficiencies for the JSC-1 rock.
1 g samples of spiked JSC-1 rock were placed in test tubes, with 3 ml solvent and the mixture subjected to ultrasonication (20 minutes). The solvent was an aqueous surfactant solution containing polysorbate 80 in various amounts (either 1.5 g/L or 2.5 g/L), as set out in Table 1 below. The surfactant was dissolved either in water that contains 20% methanol (referred to in Table 1 as “w MeOH”) or pure water (“w/o MeOH”). After sonication the mixture was centrifuged (2500 rpm×10 min) and the supernatant pipetted into a test tube. A liquid/liquid extraction was then performed with dichloromethane, the dichloromethane was then blown down via nitrogen to 1 ml ready for further analysis by gas chromatography-mass spectrometry.
The organic constituents of extracts were separated on an Agilent technologies 6890N gas chromatograph. Extracts were dissolved in 1 ml dichloromethane and 1 μl was introduced via splitless injection into a HP-5 (0.25 mm×30 m×[…]) capillary column in a helium carrier gas. The column oven was operated with a temperature programme starting at 50° C. for 1 min followed by a ramp of 5° C. min−1 until 310° C. where the temperature was held for 20 min. Individual compounds were identified by introducing the column effluent into an Agilent technologies 5973 inert mass selective detector operated with a 12 min solvent delay and a scan range of m/z 50-550.
The extraction efficiency is measured as the percentage of the organic compounds that are extracted as compared to the amount originally present in the rock. […] Other variables include temperature and pressure. As can also be seen from Table 1, the optimum recovery appears to take place between about 0.5 an 3 grams per litre of polysorbate 80, which corresponds to 40 to 230 times the cmc of polysorbate 80.

[1] = polysorbate 80 1.5 g/L, with MeOH (water containing 20% methanol)
[2] = polysorbate 80 1.5 g/L, without MeOH (pure water)
[3] = polysorbate 80 2.5 g/L, with MeOH (water containing 20% methanol)
[4] = polysorbate 80 2.5 g/L, without MeOH (pure water)

Row | Structure (SMILES) | Extraction efficiency [1] | Extraction efficiency [2] | Extraction efficiency [3] | Extraction efficiency [4]
1 | CCNc1nc(Cl)nc(NC(C)C)n1 [Atrazine] | 7.35% | 12.6% | 5.4% | 5.62%
2 | CC[C@H](/C=C/[C@@H](C)[C@H]1CC[C@H]2[C@@H]3CC=C4C[C@@H](O)CC[C@]4(C)[C@H]3CC[C@]12C)C(C)C [Stigmasterol] | 0% | 0% | 3.06% | 10.88%
3 | c1ccc2c(c1)c1cccc3ccc4cccc2c4c31 [Benzo(e)pyrene] | 2.38% | 0% | 20.33% | 30.55%

The remaining lines, values ahead:

Row | Extraction efficiency [1] | Extraction efficiency [2] | Extraction efficiency [3] | Extraction efficiency [4] | Structure (SMILES)
4 | 0% | 0% | 5.2% | 22.86% | c1ccc2cc3ccccc3cc2c1 [Anthracene]
5 | 8.91% | 29.08% | 0.93% | 10.7% | CCC(C)CCCC(C)CCCC(C)CCCC(C)C (stereo not shown) [Phytane]
6 | 4.21% | 14.2% | 0.54% | 0.73% | CCCCCCCCCCCCCCCC [Hexadecane]
7 | 6.11% | 19.71% | 0.58% | 9.11% | CC(C)=CCC/C(C)=C/CC/C(C)=C/CC/C=C(\C)CC/C=C(\C)CCC=C(C)C [Squalene]
